Results reported in US7846697B2, “Method of producing a low molecular weight organic compound in a cell” (BLMaps, priority 2003, dated 2010).

Test system: E. coli strain KO1418 transformants
Assay: Toxicity of vanillin with constitutive expression of UGT85B1 or AS, growth on plates
Assay type: cell-based
Description: For experimentation with constitutive expression of UGT85B1 and AS, the E. coli strains JM109, and K01418 were transformed with the constructed plasmids pJH 430, pJH431, pJH432, pJH433, pJH434, pJH435, pJH436, pJH437, pJH438, pJH439, pJH440, and pJH441, and pKOL30 as control, employing standard transformation protocols. Transformants were selected for ampicilin resistance, and two transformants of each E. coli strain with each plasmid were kept for expression experiments. The E. coli transformants were inoculated from plate cultures into 2 ml liquid growth medium (LB medium containing ampicilin at 100 μg/ml), and allowed to grow for 20 hours at 37° C. The precultures were diluted 100 times 10^4 times and 10^6 times in growth medium, and 4 μl droplets of these cell suspensions were applied to the surface of Petri dishes containing solid LB-ampicilin medium containing varying concentrations of vanillin (based on the STV determinations described above). The plates were incubated at 37° C. for 24 hours, after which growth on the various concentrations of vanillin was monitored and recorded.

Compound: COc1cc(C=O)ccc1O [Vanillin, vanillin]
- growth (KO1418 [pJH430], 0.08% vanillin): +++
- growth (KO1418 [pJH430], 0.12% vanillin): +++
- growth (KO1418 [pJH430], 0.16% vanillin): +++
- growth (KO1418 [pJH431], 0.08% vanillin): +++
- growth (KO1418 [pJH431], 0.12% vanillin): +++
- growth (KO1418 [pJH431], 0.16% vanillin): +++
- growth (KO1418 [pJH432], 0.08% vanillin): +++
- growth (KO1418 [pJH432], 0.12% vanillin): +++
- growth (KO1418 [pJH432], 0.16% vanillin): +
- growth (KO1418 [pJH433], 0.08% vanillin): +++
- growth (KO1418 [pJH433], 0.12% vanillin): +++
- growth (KO1418 [pJH433], 0.16% vanillin): +++
- growth (KO1418 [pKOL30], 0.08% vanillin): +++
- growth (KO1418 [pKOL30], 0.12% vanillin): ++
- growth (KO1418 [pKOL30], 0.16% vanillin): +
